Test [1] deals with T1, PDGFRβ (Homo sapiens (Human), UniProt P09619). The test can be described thus: PDGFRβ Cellular Assay (PDGF-induced intracellular calcium, FLIPR, NHDF-Ad). Type of test: cell-based. The following applies: PDGF-BB stimulation (30 ng/mL). How it is done:
(§1) Automated FLIPR (Fluorometric Imaging Plate Reader) technology was used to screen for inhibitors of PDGF-induced increases in intracellular calcium levels in fluorescent dye loaded endothelial cells. NHDF-Ad (Normal Human Dermal Fibroblasts, Adult; Lonza) were seeded in 384-well fibronectin coated black-walled plates overnight @ 37° C./5% CO2. Cells were loaded with calcium indicator Fluo-4 for 45 minutes at 37° C. Cells were washed 2 times (Elx405, Biotek Instruments) to remove extracellular dye. For screening, cells were pre-incubated with test agents for 30 minutes, at a single concentration (10 uM) or at concentrations ranging from 0.0001 to 10.0 uM followed by PDGF-BB stimulation (30 ng/mL). Changes in fluorescence at 516 nm were measured simultaneously in all 384 wells using a cooled CCD camera. Data were generated by determining max-min fluorescence levels for unstimulated, stimulated, and drug treated samples. IC50 values for test compounds were calculated from % inhibition of PDGF-BB stimulated responses in the absence of inhibitor.
For orientation: Calcium flux is commonly read through the fluorescence of an indicator in the cells.
Target sequence in this assay (P09619 33-1106): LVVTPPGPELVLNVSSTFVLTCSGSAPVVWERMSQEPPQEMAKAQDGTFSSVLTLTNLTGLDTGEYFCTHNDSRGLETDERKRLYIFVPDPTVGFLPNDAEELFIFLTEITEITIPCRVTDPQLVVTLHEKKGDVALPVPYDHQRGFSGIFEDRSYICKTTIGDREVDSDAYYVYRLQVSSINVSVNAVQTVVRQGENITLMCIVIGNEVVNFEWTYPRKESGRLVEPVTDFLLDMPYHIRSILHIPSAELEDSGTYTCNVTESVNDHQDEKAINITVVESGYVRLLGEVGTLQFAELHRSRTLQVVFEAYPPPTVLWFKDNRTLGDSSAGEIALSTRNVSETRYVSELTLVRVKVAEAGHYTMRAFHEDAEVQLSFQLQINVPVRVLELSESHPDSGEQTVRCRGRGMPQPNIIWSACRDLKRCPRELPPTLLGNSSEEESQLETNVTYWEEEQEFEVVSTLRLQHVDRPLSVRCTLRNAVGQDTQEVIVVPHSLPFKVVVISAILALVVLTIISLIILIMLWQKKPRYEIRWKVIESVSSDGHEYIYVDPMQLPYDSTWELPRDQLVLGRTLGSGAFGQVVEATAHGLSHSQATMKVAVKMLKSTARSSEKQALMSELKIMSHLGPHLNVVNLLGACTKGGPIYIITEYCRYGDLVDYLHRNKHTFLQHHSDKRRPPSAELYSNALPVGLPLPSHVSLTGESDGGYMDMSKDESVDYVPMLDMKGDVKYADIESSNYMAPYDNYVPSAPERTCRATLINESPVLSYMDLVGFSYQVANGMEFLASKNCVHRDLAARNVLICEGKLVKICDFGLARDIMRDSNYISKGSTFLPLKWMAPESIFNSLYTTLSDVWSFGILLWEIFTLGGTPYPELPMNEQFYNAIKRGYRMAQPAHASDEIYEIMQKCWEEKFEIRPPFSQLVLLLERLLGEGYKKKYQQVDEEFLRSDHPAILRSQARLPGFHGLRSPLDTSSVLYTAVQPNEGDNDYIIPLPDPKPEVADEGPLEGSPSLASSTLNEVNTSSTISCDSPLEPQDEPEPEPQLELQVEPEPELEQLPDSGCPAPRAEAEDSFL

Test [2] addresses T1, PDGFRβ. The test can be described thus: PDGFRβ Kinase Assay. Type of test: biochemical. The conditions noted are these: purified cytoplasmic domain PDGFR-b protein, 36 μM ATP; read-out: PDGFRβ Enzyme Assay (IC50 nM). On the procedure: Biochemical PDGFRβ kinase assays were performed in 96 well microtiter plates that were coated overnight with 75 μg of poly-Glu-Tyr (4:1) in 10 mM Phosphate Buffered Saline (PBS), pH 7.4.
(§2) PBS-T prior to starting the reaction. Reactions were carried out in 100 μL reaction volumes containing 36 μM ATP in kinase buffer (50 mM Hepes buffer pH 7.4, 20 mM MgCl2, 0.1 mM MnCl2 and 0.2 mM Na3VO4). […] Reactions were initiated by the addition 20 ul per well of kinase buffer containing 200-300 ng purified cytoplasmic domain PDGFR-b protein (Millipore). Following a 60 minute incubation at 30° C., the reactions were washed 2 mls per well PBS-T. 100 μl of a monoclonal anti-phosphotyrosine antibody-peroxidase conjugate diluted 1:10,000 in PBS-T was added to the wells for 30 minutes. Following a 2 mls per well wash with PBS-Tween-20, 100 μl of O-Phenylenediamine Dihydrochloride in phosphate-citrate buffer, containing urea hydrogen peroxide, was added to the wells for 7-10 minutes as a colorimetric substrate for the peroxidase. […] IC50 values for compound inhibition were calculated directly from graphs of optical density (arbitrary units) versus compound concentration following subtraction of blank values.
Target sequence in this assay (P09619 554-1106): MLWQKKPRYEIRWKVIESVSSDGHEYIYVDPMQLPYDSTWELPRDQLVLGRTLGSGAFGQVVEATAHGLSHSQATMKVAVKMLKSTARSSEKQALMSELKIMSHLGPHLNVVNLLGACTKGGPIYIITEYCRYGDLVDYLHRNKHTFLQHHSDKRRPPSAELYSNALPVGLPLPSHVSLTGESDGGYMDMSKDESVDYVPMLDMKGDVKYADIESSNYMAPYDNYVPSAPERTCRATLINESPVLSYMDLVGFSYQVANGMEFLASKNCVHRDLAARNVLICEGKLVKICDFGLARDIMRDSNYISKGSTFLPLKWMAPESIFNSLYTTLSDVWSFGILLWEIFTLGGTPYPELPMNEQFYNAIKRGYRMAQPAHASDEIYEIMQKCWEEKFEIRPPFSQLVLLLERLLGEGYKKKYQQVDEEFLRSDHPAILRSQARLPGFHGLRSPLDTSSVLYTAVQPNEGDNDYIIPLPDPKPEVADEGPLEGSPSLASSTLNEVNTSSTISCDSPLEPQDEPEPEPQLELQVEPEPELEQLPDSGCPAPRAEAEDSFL

Test [3] concerns the target VEGFR2 (Homo sapiens (Human), UniProt P35968). Put plainly: VEGFR2 Cellular Assay (VEGF induced intracellular calcium, FLIPR, HUVEC). Type of test: cell-based. The following applies: VEGF165 stimulation (10 ng/mL). On the procedure:
as §1, with “VEGFR2 Cellular Assay Automated” for “Automated”, “of VEGF induced” for “of PDGF-induced”, “cells. HUVEC (human umbilical vein endothelial cells) (Clonetics)” for “cells. NHDF-Ad (Normal Human Dermal Fibroblasts, Adult; Lonza)”, “by VEGF165” for “by PDGF-BB”, “stimulation (10” for “stimulation (30”, “of VEGF” for “of PDGF-BB”

In test [4] the target is VEGFR2 (KDR) (Homo sapiens (Human), UniProt P35968). Put plainly: VEGFR2 Kinase Assay. In kind it is biochemical. The conditions noted are these: purified cytoplasmic domain KDR protein, 2.7 μM ATP; read-out: VEGFR2 Enzyme Assay (IC50 nM). On the procedure: as §2, with “VEGFR2 Kinase Assay Biochemical KDR kinase assays were performed in 96 well microtiter plates that were coated overnight with 75 μg/well of poly-Glu-[…]:1) in 10 mM Phosphate Buffered Saline (PBS), pH 7.4. […]” for “PBS-T prior to starting the reaction.”, “2.7” for “36”, “KDR” for “PDGFR-b”, “(BPS Bioscience, San Diego, Calif.).” for “(Millipore).”, “15” for “60”, “0-Phenylenediamine” for “O-Phenylenediamine”
VEGFR2 (KDR), sequence (P35968 786-1356): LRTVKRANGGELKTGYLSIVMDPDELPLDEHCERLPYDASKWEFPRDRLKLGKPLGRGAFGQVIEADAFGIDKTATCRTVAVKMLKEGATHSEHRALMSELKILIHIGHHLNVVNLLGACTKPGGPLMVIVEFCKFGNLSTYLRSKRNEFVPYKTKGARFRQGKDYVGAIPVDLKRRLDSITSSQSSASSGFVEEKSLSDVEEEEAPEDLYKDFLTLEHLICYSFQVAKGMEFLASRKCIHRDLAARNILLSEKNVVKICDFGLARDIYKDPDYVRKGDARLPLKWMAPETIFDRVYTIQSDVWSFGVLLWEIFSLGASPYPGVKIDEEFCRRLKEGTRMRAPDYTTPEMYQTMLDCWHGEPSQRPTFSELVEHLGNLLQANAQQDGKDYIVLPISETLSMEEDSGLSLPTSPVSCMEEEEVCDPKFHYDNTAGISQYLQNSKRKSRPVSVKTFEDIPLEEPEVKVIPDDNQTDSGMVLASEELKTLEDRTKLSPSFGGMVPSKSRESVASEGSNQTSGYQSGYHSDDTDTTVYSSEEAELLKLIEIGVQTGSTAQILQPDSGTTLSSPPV

In general, IC50 refers to the concentration that gives 50% inhibition.

VEGFR2, sequence (P35968 20-1356): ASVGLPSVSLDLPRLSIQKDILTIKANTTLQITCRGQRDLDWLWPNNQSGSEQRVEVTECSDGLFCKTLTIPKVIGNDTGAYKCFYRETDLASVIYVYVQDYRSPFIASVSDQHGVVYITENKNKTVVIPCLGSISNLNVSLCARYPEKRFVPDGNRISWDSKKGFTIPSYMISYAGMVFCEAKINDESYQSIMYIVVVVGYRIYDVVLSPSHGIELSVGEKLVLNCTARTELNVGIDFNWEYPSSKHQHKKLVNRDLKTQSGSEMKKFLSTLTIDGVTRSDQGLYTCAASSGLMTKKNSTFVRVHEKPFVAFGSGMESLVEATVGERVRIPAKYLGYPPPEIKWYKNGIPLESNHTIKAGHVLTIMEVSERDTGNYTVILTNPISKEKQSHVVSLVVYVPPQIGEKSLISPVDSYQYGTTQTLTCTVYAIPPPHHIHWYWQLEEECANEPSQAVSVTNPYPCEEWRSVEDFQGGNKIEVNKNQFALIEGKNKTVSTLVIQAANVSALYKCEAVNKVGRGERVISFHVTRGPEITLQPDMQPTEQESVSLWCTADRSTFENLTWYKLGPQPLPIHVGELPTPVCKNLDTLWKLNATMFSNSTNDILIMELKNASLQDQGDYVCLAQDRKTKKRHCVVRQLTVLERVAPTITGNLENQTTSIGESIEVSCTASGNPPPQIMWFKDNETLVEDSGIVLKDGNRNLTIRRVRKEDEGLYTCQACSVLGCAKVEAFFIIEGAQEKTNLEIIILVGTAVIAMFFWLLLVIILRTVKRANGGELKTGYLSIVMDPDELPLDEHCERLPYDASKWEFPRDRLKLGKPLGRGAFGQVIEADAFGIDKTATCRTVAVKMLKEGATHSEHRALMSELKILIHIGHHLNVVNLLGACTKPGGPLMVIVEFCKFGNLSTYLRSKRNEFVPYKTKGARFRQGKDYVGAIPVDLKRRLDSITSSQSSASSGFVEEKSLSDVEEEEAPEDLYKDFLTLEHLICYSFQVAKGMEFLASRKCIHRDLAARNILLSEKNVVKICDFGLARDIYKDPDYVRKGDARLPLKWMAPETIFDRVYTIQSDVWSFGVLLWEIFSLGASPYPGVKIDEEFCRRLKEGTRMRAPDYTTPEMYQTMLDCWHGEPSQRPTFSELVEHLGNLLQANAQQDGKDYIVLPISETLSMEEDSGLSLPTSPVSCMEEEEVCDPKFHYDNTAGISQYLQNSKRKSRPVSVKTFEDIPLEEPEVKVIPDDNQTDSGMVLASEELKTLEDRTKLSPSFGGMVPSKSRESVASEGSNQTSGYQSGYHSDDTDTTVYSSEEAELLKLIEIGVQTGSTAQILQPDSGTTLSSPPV

For `Cc1ccoc1C(=O)Nc1cccc(C#Cc2cc(C(=O)N=S(C)(C)=O)cnc2N)c1` [Example 1, 6-Amino-N-[dimethyl(oxido)-λ^4-sulfanylidene]-5-({3-[(3-methyl-2-furoyl)amino]phenyl}ethynyl)nicotinamide], the IC50 in test [1] amounted to 11 nM; in test [2] it was 16 nM; in test [3], 1 nM; in test [4] it was 6 nM.

With `Cc1ccoc1C(=O)Nc1cccc(C#Cc2cncc(C(=O)N=S3(=O)CCCC3)c2)c1` [Example 3, 5-({3-[(3-Methyl-2-furoyl)amino]phenyl}ethynyl)-N-(1-oxidotetrahydro-1H-λ^4-thien-1-ylidene)nicotinamide], the IC50 is 66 nM in test [1], 34 nM in test [2], 3 nM in test [3] and 2 nM in test [4].

Consider `Cc1ccoc1C(=O)Nc1cccc(C#Cc2cc(C(=O)N=S3(=O)CCCC3)cnc2N)c1` [Example 4, 6-Amino-5-({3-[(3-methyl-2-furoyl)amino]phenyl}ethynyl)-N-(1-oxidotetrahydro-1H-1λ^4-thien-1-ylidene)nicotinamide], for which the IC50 was found to be 15 nM in test [1], 30 nM in test [2], 2 nM in test [3] and 2 nM in test [4].

Consider `Cc1ccc(F)c(NC(=O)Nc2cccc(C#Cc3cncc(C(=O)N=S(C)(C)=O)c3)c2)c1` [Example 8, N-[Dimethyl(oxido)-λ^4-sulfanylidene]-5-{[3-({[(2-fluoro-5-methylphenyl)amino]carbonyl}amino)phenyl]ethynyl}nicotinamide], for which the figures for the IC50 in test [1], in test [3] and in test [4] were 28 nM, 10 nM and 3 nM, respectively.

Turning to `COC(=O)CCCCS(C)(=O)=NC(=O)c1cnc(N)c(C#Cc2cccc(NC(=O)c3cc(C(F)(F)F)ccc3F)c2)c1` (centres unmarked) [Example 27, Methyl 5-[N-({6-amino-5-[(3-{[2-fluoro-5-(trifluoromethyl)benzoyl]amino}phenyl)ethynyl]pyridin-3-yl}carbonyl)-S-methylsulfonimidoyl]pentanoate], the IC50 was 19 nM in test [1], 40 nM in test [2], 1 nM in test [3] and 10 nM in test [4].

On to `COC(=O)CCCCS(C)(=O)=NC(=O)c1cnc(N)c(C#Cc2cccc(NC(=O)c3cccc(C(F)(F)F)c3)c2)c1` (centres unmarked) [Example 28, Methyl 5-[N-({6-amino-5-[(3-{[3-(trifluoromethyl)benzoyl]amino}phenyl)ethynyl]pyridin-3-yl}carbonyl)-S-methylsulfonimidoyl]pentanoate], for which the IC50 is 12 nM in test [1], 9 nM in test [2], 4 nM in test [3] and 4 nM in test [4].

With `COC(=O)CCCCS(C)(=O)=NC(=O)c1cnc(N)c(C#Cc2cccc(C(=O)Nc3cc(C(C)(C)C)on3)c2)c1` (centres unmarked) [Example 36, Methyl 5-[N-({6-amino-5-[(3-{[(5-tert-butylisoxazol-3-yl)amino]carbonyl}phenyl)ethynyl]pyridin-3-yl}carbonyl)-S-methylsulfonimidoyl]pentanoate], the IC50 was 18 nM in test [1], 1 nM in test [3] and 10 nM in test [4].

As for `COC(=O)CCCCS(C)(=O)=NC(=O)c1cnc(N)c(C#Cc2cccc(NC(=O)Nc3cc(C)ccc3F)c2)c1` (centres unmarked) [Example 37, Methyl 5-{N-[(6-amino-5-{[3-({[(2-fluoro-5-methylphenyl)amino]carbonyl}amino)phenyl]ethynyl}pyridin-3-yl)carbonyl]-S-methylsulfonimidoyl}pentanoate], the figures for the IC50 in test [1], in test [2] and in test [4] were 44 nM, 14 nM and 5 nM, respectively.

In the case of `COC(=O)CCCCS(C)(=O)=NC(=O)c1cnc(N)c(C#Cc2cccc(NC(=O)Nc3cccc(C)c3)c2)c1` (centres unmarked) [Example 38, Methyl 5-{N-[(6-amino-5-{[3-({[(3-methylphenyl)amino]carbonyl}amino)phenyl]ethynyl}pyridin-3-yl)carbonyl]-S-methylsulfonimidoyl}pentanoate], the values for the IC50 in test [1], in test [2] and in test [4] were 25 nM, 13 nM and 4 nM, respectively.

(Values after patent publication US9266869B2, “Substituted dialkyl(oxido)-lambda4-sulfanylidene nicotinamide derivatives as kinase inhibitors” (Allergan, Inc., priority 2013, dated 2016).)
